Measured values as given in ChEMBL document CHEMBL6153073, “Synthesis and functional screening of novel inhibitors targeting the HDAC6 zinc finger ubiquitin-binding domain” (Eur J Med Chem, 2025).
Active and inactive are the calls of the source. The calls are words filed in the database; no cut-off is given here. Where a SMILES comes first, the peptide text is derived from it. The star is where a group is joined. Cbz = O=C(OCc1ccccc1)*

Experiments:
HL-60 = assay: Cytotoxicity against human HL-60 cells assessed as cell health index score at 0.005 to 100 uM incubated for 4 hrs by fluorescent dye based flow cytometric analysis; type: toxicity; details: hl-60, 4 h, dose 0.005-100 µM
MM1.S [1] = assay: Cytotoxicity against human MM1.S cells at 0.025 to 0.3 uM incubated for 24 hrs by cellTiter-Glo luminescent cell viability assay; type: functional, cell-based
[2] = target: T1, Protein deacetylase HDAC6 (Homo sapiens, UniProt Q9UBN7); assay: Displacement of FITC-labeled C-terminal ubiquitin LRLRGG peptide from HDAC6-ubiquitin binding domain (1109 to 1215 residues) (unknown origin) extracted from Escherichia coli BL21 (DE3) by FPPD assay
T1 sequence (Q9UBN7 whole entry): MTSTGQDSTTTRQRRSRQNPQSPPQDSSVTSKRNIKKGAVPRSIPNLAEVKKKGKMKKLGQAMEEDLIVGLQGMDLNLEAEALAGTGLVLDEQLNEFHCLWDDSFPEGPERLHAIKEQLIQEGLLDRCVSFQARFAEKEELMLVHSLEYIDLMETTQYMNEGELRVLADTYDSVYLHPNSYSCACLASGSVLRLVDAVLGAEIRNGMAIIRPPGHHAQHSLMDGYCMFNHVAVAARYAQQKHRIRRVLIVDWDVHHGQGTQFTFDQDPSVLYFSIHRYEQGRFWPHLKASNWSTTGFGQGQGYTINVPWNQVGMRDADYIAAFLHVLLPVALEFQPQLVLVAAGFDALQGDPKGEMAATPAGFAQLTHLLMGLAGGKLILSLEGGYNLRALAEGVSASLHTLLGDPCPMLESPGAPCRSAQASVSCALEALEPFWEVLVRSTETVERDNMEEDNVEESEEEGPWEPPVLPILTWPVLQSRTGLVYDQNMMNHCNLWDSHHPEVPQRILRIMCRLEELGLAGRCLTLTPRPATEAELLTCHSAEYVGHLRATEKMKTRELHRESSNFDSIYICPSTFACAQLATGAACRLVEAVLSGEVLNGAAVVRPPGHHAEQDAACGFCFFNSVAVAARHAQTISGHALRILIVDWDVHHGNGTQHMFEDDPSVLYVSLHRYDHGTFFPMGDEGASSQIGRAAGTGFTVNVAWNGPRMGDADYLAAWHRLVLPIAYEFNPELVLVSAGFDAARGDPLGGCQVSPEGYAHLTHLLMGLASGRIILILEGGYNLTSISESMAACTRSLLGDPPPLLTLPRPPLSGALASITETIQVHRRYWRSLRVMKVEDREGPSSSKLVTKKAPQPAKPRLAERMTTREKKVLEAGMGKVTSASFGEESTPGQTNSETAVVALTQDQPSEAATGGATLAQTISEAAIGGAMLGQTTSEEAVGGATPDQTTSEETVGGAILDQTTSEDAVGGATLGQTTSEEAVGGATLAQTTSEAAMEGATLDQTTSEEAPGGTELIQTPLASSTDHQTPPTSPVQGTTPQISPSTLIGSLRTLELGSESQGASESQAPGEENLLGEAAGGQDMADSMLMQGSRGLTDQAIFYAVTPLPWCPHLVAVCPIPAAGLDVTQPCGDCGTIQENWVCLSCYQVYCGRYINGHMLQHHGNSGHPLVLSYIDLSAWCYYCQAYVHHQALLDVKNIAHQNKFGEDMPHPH

[3] = target: T1, Protein deacetylase HDAC6; assay: Inhibition of HDAC6 deacetylase domain 2 (unknown origin) using fluorogenic HDAC substrate incubated for 15 to 60 mins by fluorimetric analysis
[4] = Cytotoxicity against human HEL 299 cells; type: toxicity, cell-based
[5] = Cytotoxicity against green monkey […] cells; type: toxicity, cell-based; details: chlorocebus sabaeus
[6] = Cytotoxicity against human HEp-2 cells; type: toxicity, cell-based
[7] = Cytotoxicity against dog MDCK cells; type: toxicity, cell-based, Canis lupus familiaris
MDCK = assay: Cytotoxicity against dog MDCK cells at 50 uM; type: toxicity, cell-based, Canis lupus familiaris
Hep 3B2 = assay: Cytotoxicity against human Hep3B cells at 50 uM; type: toxicity, cell-based; details: hep 3b2, 50 µM
[8] = Cytotoxicity against green monkey […] cells at 50 uM; type: toxicity, cell-based; details: chlorocebus sabaeus
HEp-2 = assay: Cytotoxicity against human HEp-2 cells at 50 uM; type: toxicity, cell-based; details: hep-2, 50 µM
HEL 299 = assay: Cytotoxicity against human HEL 299 cells at 50 uM; type: toxicity, cell-based; details: hel 299, 50 µM
MM1.S [9] = assay: Effect on bortezomib-induced human MM1.S cells at 1 to 10 uM pretreated with bortezomib for 6 hrs followed by compound addition and measured after 7 to 18 hrs by cellTiter-Glo luminescent cell viability assay; type: functional, cell-based; details: dose 1-10 µM, time 7-18 hrs
RPMI-8226 [10] = assay: Cytotoxicity against human RPMI-8226 cells at 8 nM incubated for 24 hrs by cellTiter-Glo assay relative to control; type: functional
MM1.S [11] = assay: Cytotoxicity against human MM1.S cells at 8 nM incubated for 24 hrs by cellTiter-Glo assay relative to control; type: functional
MM1.S [12] = assay: Cytotoxicity against human MM1.S cells assessed as reduction in cell viability at 1 to 10 nM incubated for 24 hrs by cellTiter-Glo luminescent cell viability assay; type: functional, cell-based
[13] = Cytotoxicity against human Hep3B cells; type: toxicity, cell-based, Hep 3B2
RPMI-8226 [14] = assay: Cytotoxicity against human RPMI-8226 cells at 2 to 12 nM incubated for 24 hrs by cellTiter-Glo assay; type: functional, cell-based; details: RPMI-8226, 24 h

For `CC(C)C[C@@H](C=O)NC(=O)[C@H](CC(C)C)NC(=O)[C@H](CC(C)C)NC(=O)OCc1ccccc1` [MG-132] (Cbz-Leu-Leu-Leu-aldehyde), the Activity (HL-60) was > 0.5 and the IC50 (MM1.S [1]) was 150 nM.
`CCCn1c(CCC(=O)O)nc2ccccc2c1=O` showed an IC50 [2] of 61700 nM.
`O=C(NO)c1ccc(Cn2c3c(c4ccccc42)CS(=O)(=O)CC3)cc1` showed an IC50 [3] of 19 nM.
In the case of `CCn1c(CCC(=O)O)nc2ccccc2c1=O`, the IC50 [2] is reported as 20500 nM.
For `CN1CCc2c(c3ccccc3n2Cc2ccc(C(=O)NO)cc2)C1` [TUBASTATIN A], the CC50 [4] was […], the Activity (HL-60) was > 0.5 and the CC50 [5] was 400 nM. For the same compound, the CC50 [6] was […] and the CC50 [7] was 400 nM.
Work on `Cn1c(CCC(=O)O)nc2ccccc2c1=O` yielded an IC50 [2] of 5000 nM.
For `CCOC(=O)CCc1nc2ccccc2c(=O)n1Cc1ccccc1`, the Activity (HL-60) was 0.31.
With `CCOC(=O)CCc1nc(OCc2ccccc2)c2ccccc2n1` the Activity (MDCK) was “Toxic”, the Activity (Hep 3B2) was “Toxic” and the Activity [8] was “Toxic”. For the same compound, the Activity (HEp-2) was “Toxic” and the Activity (HEL 299) was “Toxic”.
Compound `O=C(O)CCn1c2c(c3ccccc31)CS(=O)(=O)CC2` has an IC50 [2] of 285000 nM.
For `CCOC(=O)CCc1nc2ccccc2c(=O)n1C`, the Activity (HL-60) was 0.31 and the Activity (MM1.S [9]) was “inactive”.
With `CC(C)C[C@H](NC(=O)[C@H](Cc1ccccc1)NC(=O)c1cnccn1)B(O)O` [BORTEZOMIB] the CC50 [4] was 1200 nM, the Activity (HL-60) was > 0.5 and the Activity (RPMI-8226 [10]) was ~50%. For the same compound, the Activity (MM1.S [11]) was ~10%, the CC50 [5] was 1200 nM and the IC50 (MM1.S [12]) was 4.32 nM. For the same compound, the CC50 [13] was 1200 nM, the CC50 [6] was 1200 nM and the IC50 (RPMI-8226 [14]) was 9.6 nM. The CC50 [7] was 1200 nM.
`CC(/C=C/C(=O)NO)=C\[C@@H](C)C(=O)c1ccc(N(C)C)cc1` [TRICHOSTATIN] showed a CC50 [13] of 400 nM.
In the case of `O=C(O)CCC1C(=O)N(Cc2ccccc2)c2ccccc21` (stereo not drawn), the IC50 [2] is reported as 542000 nM.
In the case of `O=C(O)CCc1nc2ccccc2c(=O)n1Cc1ccc(Cl)cc1`, the IC50 [2] is reported as 68000 nM.
`O=C(O)CCn1c2c(c3cc(-c4ccc(F)cc4)ccc31)CS(=O)(=O)CC2` gave an IC50 [2] of 162000 nM.
For `O=C(O)CCc1nc2ccccc2c(=O)n1Cc1ccc(F)cc1`, the IC50 [2] was 127000 nM.
Work on `O=C(O)CCn1c2c(c3cc(F)ccc31)CS(=O)(=O)CC2` yielded an IC50 [2] of 168000 nM.
`CCOC(=O)CCc1nc2ccccc2c(=O)n1Cc1ccc(F)cc1` gave an Activity (HL-60) of 0.31.
Compound `O=C(O)CCc1nc2ccccc2c(=O)n1Cc1ccccc1` has an IC50 [2] of 33100 nM.
